This note sets out measurements from patent US7309579B2, “Method for screening for activators of soluble guanylate cyclase having oxidized heme iron” (Sanofi-Aventis Deutschland GmbH, priority 1999, dated 2007).

The target of experiment [1] is T1, heme-free soluble guanylate cyclase (Bos taurus, UniProt P16068).
T1 sequence (P16068 1-619): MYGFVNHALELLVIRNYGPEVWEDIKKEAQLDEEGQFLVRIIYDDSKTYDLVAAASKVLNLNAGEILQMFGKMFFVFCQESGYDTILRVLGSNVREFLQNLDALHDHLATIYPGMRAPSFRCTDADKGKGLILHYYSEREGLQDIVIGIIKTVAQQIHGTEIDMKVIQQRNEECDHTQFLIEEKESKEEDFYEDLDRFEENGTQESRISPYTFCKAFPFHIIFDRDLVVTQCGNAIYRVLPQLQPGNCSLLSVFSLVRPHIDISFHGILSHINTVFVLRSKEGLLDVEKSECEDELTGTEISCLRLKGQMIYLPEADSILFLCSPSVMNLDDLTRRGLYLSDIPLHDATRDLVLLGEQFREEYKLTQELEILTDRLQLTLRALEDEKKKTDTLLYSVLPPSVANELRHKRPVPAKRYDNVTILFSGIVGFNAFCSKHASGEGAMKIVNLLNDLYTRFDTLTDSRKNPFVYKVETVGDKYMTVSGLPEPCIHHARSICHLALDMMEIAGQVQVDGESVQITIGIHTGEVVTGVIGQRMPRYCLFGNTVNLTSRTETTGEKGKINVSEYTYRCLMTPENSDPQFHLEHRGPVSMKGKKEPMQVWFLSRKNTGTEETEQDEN
T1 sequence (P19687 1-691 partner): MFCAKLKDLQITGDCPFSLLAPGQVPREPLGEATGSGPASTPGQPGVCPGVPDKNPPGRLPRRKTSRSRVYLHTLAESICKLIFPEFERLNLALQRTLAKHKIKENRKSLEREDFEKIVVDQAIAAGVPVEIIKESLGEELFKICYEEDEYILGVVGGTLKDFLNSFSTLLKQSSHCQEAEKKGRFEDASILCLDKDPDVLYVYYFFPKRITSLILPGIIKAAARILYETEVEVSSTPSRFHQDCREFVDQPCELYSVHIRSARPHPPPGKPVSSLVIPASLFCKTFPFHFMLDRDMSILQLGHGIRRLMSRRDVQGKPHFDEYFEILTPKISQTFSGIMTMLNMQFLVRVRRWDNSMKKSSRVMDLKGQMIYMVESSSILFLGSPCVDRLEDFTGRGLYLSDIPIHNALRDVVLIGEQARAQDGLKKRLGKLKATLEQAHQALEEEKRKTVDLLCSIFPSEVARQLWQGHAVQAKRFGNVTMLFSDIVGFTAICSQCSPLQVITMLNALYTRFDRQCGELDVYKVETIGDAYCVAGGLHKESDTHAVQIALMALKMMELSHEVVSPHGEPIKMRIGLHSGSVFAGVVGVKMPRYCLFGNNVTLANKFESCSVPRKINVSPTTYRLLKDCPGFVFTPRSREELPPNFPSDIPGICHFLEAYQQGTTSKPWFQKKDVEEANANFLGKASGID
The experiment is described as follows: Activation of heme-free soluble guanylate cyclase. The class given is biochemical, bovine. As to the method:
(§1) Soluble guanylate cyclase (sGC) catalyzes the conversion of GTP into cGMP and pyrophosphate. In the presence of nicotinamide adenine dinucleotide (NAD^+) and nicotinamide mononucleotide adenylyltransferase (NAT, EC 2.7.7.1), pyrophosphate is converted into ATP and nicotinamide mononucleotide. The ATP formed can be quantified luminometrically with the aid of a luciferase in microtiter plates.
(§2) The substance to be investigated is dissolved in DMSO and diluted with DMSO/water to a final concentration of 50 μM in the assay mixture. The DMSO concentration in the assay mixture should not exceed 5% (v/v).
(§3) 100 μl of reaction mixture should contain 50 mM TEA buffer (pH 7.4), 3 mM MgCl2, 3 mM GSH, 0.1 mM GTP, 1 mM IBMX (isobutylmethylxanthine), 0.2 mM NAD^+, 0.4 mU of NAT, suitably diluted sGC enzyme solution (isolated from bovine lung as described by P. Humbert et al., Methods of Enzymology 195, 384-391 (1991)) and the test substance or solvent (for determining the basal enzyme activity). The reaction is started by adding the sGC. The reaction mixture is incubated at room temperature for 60 min and then stopped by cooling in ice and adding 50 mM EDTA, pH 8.0. […] The relative luminescence units (RLU) can be measured in a microtiter plate luminometer.
(§4) The sGC activity is obtained after subtracting the blank RLU (incubation without enzyme) from the measured RLU. […]

For experiment [2], the target named is T2, soluble guanylate cyclase with a trivalent heme iron (Bos taurus, UniProt P16068).
T2 construct: suitably diluted sGC enzyme solution (isolated from bovine lung); from tissue; host or cells: bovine lung
T2 sequence (P16068 1-619): T1 sequence (P16068 1-619)
T2 sequence (P19687 1-691 partner): T1 sequence (P19687 1-691 partner)
The experiment is described as follows: Activation of soluble guanylate cyclase after oxidation of the heme iron (enzyme stored at 4° C. for about 7 days). The class given is biochemical, bovine. As to conditions: sGC with trivalent heme iron, prepared by storing freshly prepared enzyme at 4° C. for about 7 days. As for the experimental part: as §1, §2, §3, §4

For `COc1cc(NS(=O)(=O)c2ccc(Cl)cc2)c(C(=O)Nc2ccc(S(=O)(=O)N3CCSCC3)cc2)cc1OC` [2-(4-chlorophenylsulfonylamino)-4,5-dimethoxy-N-(4-(thiomorpholine-4-sulfonyl)phenyl)benzamide], the entries for the “stimulation of the activity” value in experiment [1] and in experiment [2] were 58.2 fold and 17.6 fold, respectively. For the same molecule, the figures for the EC50 in experiment [1] (read-out: affinity) and in experiment [2] were 2.4 µM and 0.5 µM, respectively.
